Test results from patent US9206193B2, “Substituted norindenoisoquinolines, syntheses thereof, and methods of use” (PURDUE RESEARCH FOUNDATION, priority 2010, dated 2015).
Like-named read-outs stand apart in the source and are kept apart here.

Assays:
HOP-62 = test: NCI DTP antiproliferative screen, lung HOP-62; type: cell-based, human
Protocol: (§1) The norindenoisoquinolines are examined for antiproliferative activity in the National Cancer Institute's Developmental Therapeutics Program (DTP) (Boyd & Paull, Some Practical Considerations and Applications of the National Cancer Institute In Vitro Anticancer Drug Discovery Screen. Drug Development Res. 1995, 34, 91-109; Shoemaker, The NCI60 Human Tumour Cell Line Anticancer Drug screen. Nat. Rev. Cancer 2006, 6, 813-823). Each compound is evaluated against approximately 55 human cell lines representing leukemia, melanoma, and cancers of the lung, colon, brain, breast, ovary, prostate and kidney. After an initial one-dose assay at a single high dose (10^−5 M), only compounds that satisfy the pre-determined threshold inhibition criteria are selected for further 5-dose assay.

HCT-116 = test: NCI DTP antiproliferative screen, colon HCT-116; type: cell-based, human
Protocol: as §1

SF-539 = test: NCI DTP antiproliferative screen, CNS SF-539; type: cell-based, human
Protocol: as §1

UACC-62 = test: NCI DTP antiproliferative screen, melanoma UACC-62; type: cell-based, human
Protocol: as §1

OVCAR-3 = test: NCI DTP antiproliferative screen, ovarian OVCAR-3; type: cell-based, human
Protocol: as §1

SN12C = test: NCI DTP antiproliferative screen, renal SN12C; type: cell-based, human
Protocol: as §1

DU-145 = test: NCI DTP antiproliferative screen, prostate DU-145; type: cell-based, human
Protocol: as §1

[1] = tested on: all human cancer cell lines successfully tested; test: NCI DTP antiproliferative screen, mean graph midpoint; type: cell-based; settings: average GI50 of all cell lines tested; values outside 10^-8 to 10^-4 M taken as the limits
Protocol: as §1

SR = test: NCI DTP antiproliferative screen, leukemia SR; type: cell-based, human
Protocol: as §1

NCI-H460 = test: NCI DTP antiproliferative screen, non-small cell lung cancer NCI-H460; type: cell-based, human
Protocol: as §1

IGROVI = test: NCI DTP antiproliferative screen, ovarian cancer IGROVI; type: cell-based, human
Protocol: as §1

MCF7 = test: NCI DTP antiproliferative screen, breast cancer MCF7; type: cell-based, human
Protocol: as §1

HCC-2998 = test: NCI DTP antiproliferative screen, colon cancer HCC-2998; type: cell-based, human
Protocol: as §1

COLO 205 = test: NCI DTP antiproliferative screen, colon cancer COLO 205; type: cell-based, human
Protocol: as §1

CAKI-1 = test: NCI DTP antiproliferative screen, renal cancer CAKI-1; type: cell-based, human
Protocol: as §1

ACHN = test: NCI DTP antiproliferative screen, renal cancer ACHN; type: cell-based, human
Protocol: as §1

U251 = test: NCI DTP antiproliferative screen, CNS cancer U251; type: cell-based, human
Protocol: as §1

SF-295 = test: NCI DTP antiproliferative screen, CNS cancer SF-295; type: cell-based, human
Protocol: as §1

CCRF-CEM = test: NCI DTP antiproliferative screen, leukemia CCRF-CEM; type: cell-based, human; settings: read-out: GI50 against leukemia CCRF-CEM
Protocol: as §1

RPMI-8226 = test: NCI DTP antiproliferative screen, leukemia RPMI-8226; type: cell-based, human; settings: read-out: GI50 against leukemia RPMI-8226
Protocol: as §1

MOLT-4 = test: NCI DTP antiproliferative screen, leukemia MOLT-4; type: cell-based, human; settings: read-out: GI50 against leukemia MOLT-4
Protocol: as §1

`COc1cc2cnc3c(c2cc1OC)Cc1c-3cc2c(c1Cn1ccnc1)OCO2` [Compound 14c, 2,3-Dimethoxy-8,9-methylenedioxy-10-(1H-imidazol-yl)methyl-11H-indeno[1,2-c]isoquinoline] was tested, and the GI50 (HOP-62) was 350 nM, the GI50 (HCT-116) was 160 nM and the GI50 (SF-539) was 280 nM. The GI50 (UACC-62) was 210 nM, the GI50 (UACC-62; 1st run, read-out: GI50 Melanoma UACC-62) was 210 nM and the GI50 (UACC-62; 2nd run, read-out: GI50 Melanoma UACC-62) was 180 nM. For the same molecule, the GI50 (UACC-62; Mean of runs, read-out: GI50 Melanoma UACC-62) was 200 nM, the GI50 (OVCAR-3) was 210 nM and the GI50 (SN12C) was 600 nM. For the same molecule, the GI50 (DU-145) was 260 nM, the GI50 (DU-145; 1st run, read-out: GI50 Prostate Cancer DU-145) was 260 nM and the GI50 (DU-145; 2nd run, read-out: GI50 Prostate Cancer DU-145) was 410 nM. For the same molecule, the GI50 (DU-145; Mean of runs, read-out: GI50 Prostate Cancer DU-145) was 330 nM, the “MGM (mean graph midpoint for growth inhibition)” value [1] was 0.52 µM and the GI50 (SR; 1st run, read-out: GI50 Leukemia SR) was 12 nM. The GI50 (SR; Mean of runs, read-out: GI50 Leukemia SR) was 12 nM, the GI50 (SR; read-out: GI50 against leukemia SR) was 12 nM and the GI50 (NCI-H460; 1st run) was 160 nM. It also gave a GI50 (NCI-H460; 2nd run) of 110 nM, a GI50 (NCI-H460; Mean of runs) of 130 nM and a GI50 (IGROVI; 1st run, read-out: GI50 Ovarian Cancer IGROVI) of 33 nM. The GI50 (IGROVI; 2nd run, read-out: GI50 Ovarian Cancer IGROVI) was 210 nM, the GI50 (IGROVI; Mean of runs, read-out: GI50 Ovarian Cancer IGROVI) was 120 nM and the GI50 (IGROVI; read-out: GI50 against human ovarian cancer cell IGROVI) was 121 nM. It also gave a GI50 (MCF7; 1st run, read-out: GI50 Breast Cancer MCF7) of 90 nM, a GI50 (MCF7; 2nd run, read-out: GI50 Breast Cancer MCF7) of 89 nM and a GI50 (MCF7; Mean of runs, read-out: GI50 Breast Cancer MCF7) of 90 nM. It also gave a GI50 (MCF7; read-out: GI50 against human breast cancer cell MCF-7) of 90 nM, a GI50 (HCC-2998; 1st run) of 110 nM and a GI50 (HCC-2998; 2nd run) of 2100 nM. For the same molecule, the GI50 (HCC-2998; Mean of runs) was 1100 nM, the GI50 (COLO 205; 1st run) was 760 nM and the GI50 (COLO 205; 2nd run) was 280 nM. For the same molecule, the GI50 (COLO 205; Mean of runs) was 510 nM, the GI50 (CAKI-1; 1st run) was 170 nM and the GI50 (CAKI-1; 2nd run) was 400 nM. It also gave a GI50 (CAKI-1; Mean of runs) of 290 nM, a GI50 (ACHN; 1st run) of 270 nM and a GI50 (ACHN; 2nd run) of 300 nM. It also gave a GI50 (ACHN; Mean of runs) of 280 nM, a GI50 (U251; 1st run) of 150 nM and a GI50 (U251; 2nd run) of 170 nM. It also gave a GI50 (U251; Mean of runs) of 160 nM, a GI50 (SF-295; 1st run) of 160 nM and a GI50 (SF-295; 2nd run) of 130 nM. It also gave a GI50 (SF-295; Mean of runs) of 150 nM, a GI50 (CCRF-CEM) of 37 nM and a GI50 (RPMI-8226) of 41 nM. It also gave a GI50 (MOLT-4) of 60 nM.
